Source: ChEMBL document CHEMBL1201862, “PubChem BioAssay data set” (2004)
Active and inactive are the calls of the source.

Assays:
[1] = target: Melanin-concentrating hormone receptor 1 (Homo sapiens, UniProt Q99705); assay: Late-stage fluorescence-based counterscreen for antagonists of the G-protein coupled receptor 7 (GPR7): cell-based dose response assay to identify antagonists of the melanin-concentrating hormone receptor 1 (MCHR1) Set 6.; type: functional
[2] = target: Neuropeptides B/W receptor type 1 (Homo sapiens, UniProt P48145); assay: human NPBW1 receptor blockade, IC50 – cell-based, fluorescence, dose response, set 6, late-stage follow-up (AID 588583); type: functional
CHO-K1 = assay: Counterscreen for antagonists of the orexin 1 receptor (OX1R; HCRTR1): Homogeneous time resolved fluorescence (HTRF)-based cell-based dose response assay to identify antagonists of the parental CHO-K1 cell line. [Related pubchem assays (depositor defined):AID434989, AID435008, AID463079, AID485270, AID492963, AID492964, AID492965, AID493232, AID504699, AID504701]; type: functional; settings: Cricetulus griseus;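 further: potency for inhibition of ATP-stimulated IP1 production as antagonists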
Orexin receptor type 2 [3] = target: T1, Orexin receptor type 2 (Homo sapiens, UniProt O43614); assay: Counterscreen assay for antagonists of the orexin 1 receptor (OX1R; HCRTR1): Fluorescence-based cell-based dose response assay for antagonists of the orexin 2 receptor (OX2R; HCRTR2), run by assay provider.; type: functional
T1 sequence (O43614 whole entry): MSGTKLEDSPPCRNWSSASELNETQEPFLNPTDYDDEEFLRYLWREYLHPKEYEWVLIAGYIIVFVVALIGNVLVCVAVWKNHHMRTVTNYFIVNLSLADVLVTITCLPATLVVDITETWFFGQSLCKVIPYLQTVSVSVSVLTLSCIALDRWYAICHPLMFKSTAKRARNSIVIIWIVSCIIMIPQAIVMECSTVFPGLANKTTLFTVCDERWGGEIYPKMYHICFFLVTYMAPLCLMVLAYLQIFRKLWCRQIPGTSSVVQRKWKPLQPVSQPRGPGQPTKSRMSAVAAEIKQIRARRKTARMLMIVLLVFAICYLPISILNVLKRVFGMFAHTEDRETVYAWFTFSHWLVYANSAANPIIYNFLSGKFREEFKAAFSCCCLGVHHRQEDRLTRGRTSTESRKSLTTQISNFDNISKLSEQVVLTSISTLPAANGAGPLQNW

[4] = target: T2, Orexin/Hypocretin receptor type 1 (Homo sapiens, UniProt O43613); assay: Homogeneous Time Resolved Fluorescence (HTRF)-based cell-based high throughput dose response assay for antagonists of the orexin 1 receptor (OX1R; HCRTR1). [Related pubchem assays (depositor defined):AID434989, AID435008, AID463079, AID485270, AID492963, AID492964, AID492965, AID493232, AID504717, AID504718]; type: functional
T2 sequence (O43613 whole entry): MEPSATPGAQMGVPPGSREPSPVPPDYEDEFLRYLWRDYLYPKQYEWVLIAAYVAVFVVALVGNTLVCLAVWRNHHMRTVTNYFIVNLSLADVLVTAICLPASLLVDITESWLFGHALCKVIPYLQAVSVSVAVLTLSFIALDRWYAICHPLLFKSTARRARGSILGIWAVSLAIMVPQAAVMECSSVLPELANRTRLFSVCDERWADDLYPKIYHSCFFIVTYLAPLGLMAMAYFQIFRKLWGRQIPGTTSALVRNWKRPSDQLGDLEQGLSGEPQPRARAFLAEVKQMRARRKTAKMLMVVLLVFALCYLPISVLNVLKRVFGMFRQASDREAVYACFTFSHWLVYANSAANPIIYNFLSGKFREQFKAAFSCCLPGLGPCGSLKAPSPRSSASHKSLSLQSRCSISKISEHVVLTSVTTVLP

[5] = target: T2, Orexin/Hypocretin receptor type 1; assay: Fluorescence-based cell-based high throughput dose response assay for antagonists of the orexin 1 receptor (OX1R; HCRTR1). [Related pubchem assays (depositor defined):AID434989, AID435008, AID463079, AID485270, AID492963, AID492964, AID492965, AID493232, AID504717, AID504718]; type: functional
Orexin receptor type 2 [6] = target: T1, Orexin receptor type 2; assay: Counterscreen assay for antagonists of the orexin 1 receptor (OX1R; HCRTR1): Homogeneous Time Resolved Fluorescence (HTRF)-based cell-based dose response assay for antagonists of the orexin 2 receptor (OX2R; HCRTR2), run by assay provider.; type: functional
[7] = Counterscreen for antagonists of the orexin 1 receptor (OX1R; HCRTR1): Fluorescence-based cell-based high throughput dose response assay to identify antagonists of the parental CHO cell line. [Related pubchem assays (depositor defined):AID434989, AID435008, AID463079, AID485270, AID492963, AID492964, AID492965, AID493232, AID504699, AID504701]; type: functional
[8] = viability loss in THP-1 monocytes – THP-1 cells, cytotoxicity control for Vif-APOBEC3G degradation inhibitor project, dose response (AID 1117359); type: functional; settings: THP-1
[9] = target: T3, Corticotropin-releasing factor receptor 2/Corticotropin-releasing factor-binding protein (Homo sapiens, UniProt P24387+Q13324); assay: Dose Response confirmation of uHTS hits for small molecule antagonists of the CRF-binding protein and CRF-R2 receptor complex.; type: functional; settings: read-out: IC50_Mean
T3 sequence (Q13324 whole entry): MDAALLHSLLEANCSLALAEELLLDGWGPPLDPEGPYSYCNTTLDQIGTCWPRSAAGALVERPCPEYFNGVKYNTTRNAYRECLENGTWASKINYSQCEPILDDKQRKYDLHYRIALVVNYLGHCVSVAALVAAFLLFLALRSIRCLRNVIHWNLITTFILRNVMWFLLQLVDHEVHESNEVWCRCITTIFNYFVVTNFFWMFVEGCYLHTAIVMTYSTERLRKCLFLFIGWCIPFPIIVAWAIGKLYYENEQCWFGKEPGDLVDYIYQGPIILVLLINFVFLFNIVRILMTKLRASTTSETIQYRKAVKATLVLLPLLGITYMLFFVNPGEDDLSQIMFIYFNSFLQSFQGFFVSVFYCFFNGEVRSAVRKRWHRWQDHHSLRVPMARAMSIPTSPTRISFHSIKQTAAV
T3 sequence (P24387 whole entry): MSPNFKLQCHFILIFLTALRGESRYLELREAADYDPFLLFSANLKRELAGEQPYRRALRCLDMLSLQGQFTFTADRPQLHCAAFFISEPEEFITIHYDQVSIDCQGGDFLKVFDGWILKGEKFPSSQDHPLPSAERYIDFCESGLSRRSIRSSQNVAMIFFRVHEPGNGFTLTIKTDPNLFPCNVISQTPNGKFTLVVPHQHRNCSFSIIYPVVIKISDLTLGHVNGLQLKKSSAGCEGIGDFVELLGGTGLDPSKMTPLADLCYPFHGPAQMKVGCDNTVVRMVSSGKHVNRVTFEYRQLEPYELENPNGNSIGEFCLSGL

[10] = target: T4, High affinity choline transporter 1 (Homo sapiens, UniProt Q9GZV3); assay: human choline transporter blockers, potency – cell-based, 10-point CRC, membrane potential dye, dose response (AID 588401); type: functional;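 further: membrane potential dye fluorescence of choline-evoked depolarization via CHT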
T4 sequence (Q9GZV3 whole entry): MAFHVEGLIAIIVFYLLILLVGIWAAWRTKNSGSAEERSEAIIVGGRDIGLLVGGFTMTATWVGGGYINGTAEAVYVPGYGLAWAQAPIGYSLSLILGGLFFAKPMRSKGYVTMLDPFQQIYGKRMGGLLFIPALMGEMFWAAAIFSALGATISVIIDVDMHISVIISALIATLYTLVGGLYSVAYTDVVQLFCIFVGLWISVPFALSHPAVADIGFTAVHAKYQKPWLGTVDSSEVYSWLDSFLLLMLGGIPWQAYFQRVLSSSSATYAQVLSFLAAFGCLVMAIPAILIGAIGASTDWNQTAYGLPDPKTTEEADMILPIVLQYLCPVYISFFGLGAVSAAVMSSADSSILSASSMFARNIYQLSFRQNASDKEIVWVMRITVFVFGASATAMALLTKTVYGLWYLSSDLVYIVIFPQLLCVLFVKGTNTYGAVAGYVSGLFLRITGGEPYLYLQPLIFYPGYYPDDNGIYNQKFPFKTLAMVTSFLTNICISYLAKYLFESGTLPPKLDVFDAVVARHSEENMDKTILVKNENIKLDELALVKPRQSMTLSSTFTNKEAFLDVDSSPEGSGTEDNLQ

[11] = target: T4, High affinity choline transporter 1; assay: human choline transporter blockers, potency – cell-based, 5-point CRC, membrane potential dye, dose response (AID 504840); type: functional
[12] = target: T3, Corticotropin-releasing factor receptor 2/Corticotropin-releasing factor-binding protein; assay: activators of CRF receptor 2 with binding protein – uHTS hits, confirmation (AID 602473); type: functional; settings: read-out: EC50_Mean
[13] = blockers of CRF-binding protein–CRF-R2 complex – cell-based, uHTS hits, 384-well, dose response (AID 651639); type: functional, Homo sapiens; settings: read-out: IC50_Mean
Melanocortin receptor 4 = Melanocortin receptor 4 (Homo sapiens, UniProt P32245); type: functional, cell-based;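 further: Cell-based assay with luminescence read-out, confirmatory dose-response testing for agonist activity of biased ligands at MC4R; human U2OS cells with tagged receptor and beta-arrestin; potency of agonists that increase receptor coupling to beta-arrestin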
[14] = A Cell Based Secondary Assay To Explore Cytotoxicity of Compounds that Sensitize Mycobacterium Tuberculosis to Beta-Lactam Antibiotics.; type: functional
Caspase-6 = target: T5, Caspase-6 (Homo sapiens, UniProt P55212); assay: inhibition of CASP6 peptide cleavage – biochemical, VEID-R110 fluorescence, cherry-pick, dose response (AID 720632)
T5 sequence (P55212 whole entry): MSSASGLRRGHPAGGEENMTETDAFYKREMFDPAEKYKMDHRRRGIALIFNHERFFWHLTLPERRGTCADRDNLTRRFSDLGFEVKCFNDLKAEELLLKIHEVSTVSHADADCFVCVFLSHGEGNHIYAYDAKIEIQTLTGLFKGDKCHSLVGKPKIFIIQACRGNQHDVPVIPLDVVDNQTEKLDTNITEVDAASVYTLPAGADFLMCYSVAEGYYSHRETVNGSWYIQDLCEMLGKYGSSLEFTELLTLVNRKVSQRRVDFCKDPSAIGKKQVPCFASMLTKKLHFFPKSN

[15] = target: Heat shock protein HSP 90-alpha (Homo sapiens, UniProt P07900); type: functional, organism-based
Caspase-8 = Caspase-8 (Homo sapiens, UniProt Q14790); assay: inhibitors of purified CASP8 protease – biochemical, Z-IETD-R110 fluorescence, cherry-picked samples, selectivity assay for caspase-6 inhibitor project, dose response (AID 743294)
Caspase-7 = target: T6, Caspase-7 (Homo sapiens, UniProt P55210); assay: caspase-7 enzyme inhibition, selectivity check – biochemical, DEVD-R110 fluorescence, cherry-pick, selectivity assay for caspase-6 inhibitor project, dose response (AID 743295); type: functional
T6 sequence (P55210 whole entry): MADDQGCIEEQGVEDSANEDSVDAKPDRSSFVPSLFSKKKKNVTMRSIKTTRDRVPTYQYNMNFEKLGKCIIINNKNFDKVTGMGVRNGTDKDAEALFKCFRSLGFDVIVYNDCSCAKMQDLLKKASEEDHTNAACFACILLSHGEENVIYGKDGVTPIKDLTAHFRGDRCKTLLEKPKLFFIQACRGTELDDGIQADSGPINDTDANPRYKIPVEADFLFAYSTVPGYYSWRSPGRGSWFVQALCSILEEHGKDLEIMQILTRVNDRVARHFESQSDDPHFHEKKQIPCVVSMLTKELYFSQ

[16] = target: Mitochondrial peptide methionine sulfoxide reductase (Bos taurus, UniProt P54149); assay: Absorbance-based biochemical high throughput dose response assay for activators of Methionine sulfoxide reductase A (MsrA).; type: functional
Sequence of Mitochondrial peptide methionine sulfoxide reductase (P54149 whole entry): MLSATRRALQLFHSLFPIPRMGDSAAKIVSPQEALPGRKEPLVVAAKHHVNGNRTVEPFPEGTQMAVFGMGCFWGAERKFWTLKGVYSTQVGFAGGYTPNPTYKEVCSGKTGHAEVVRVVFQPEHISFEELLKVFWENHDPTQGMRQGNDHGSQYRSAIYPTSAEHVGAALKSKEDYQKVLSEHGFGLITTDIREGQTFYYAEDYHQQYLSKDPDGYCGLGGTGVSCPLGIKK

Sequence of Neuropeptides B/W receptor type 1 (P48145 whole entry): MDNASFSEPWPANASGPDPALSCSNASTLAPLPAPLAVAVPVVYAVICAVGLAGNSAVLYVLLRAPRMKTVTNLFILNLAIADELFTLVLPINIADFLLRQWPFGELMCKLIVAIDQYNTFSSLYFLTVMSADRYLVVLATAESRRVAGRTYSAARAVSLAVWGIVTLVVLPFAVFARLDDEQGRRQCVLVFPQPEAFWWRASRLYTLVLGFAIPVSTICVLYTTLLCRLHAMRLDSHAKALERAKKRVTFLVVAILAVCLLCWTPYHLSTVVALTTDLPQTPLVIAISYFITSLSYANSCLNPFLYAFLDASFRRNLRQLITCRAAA
Sequence of Melanin-concentrating hormone receptor 1 (Q99705 whole entry): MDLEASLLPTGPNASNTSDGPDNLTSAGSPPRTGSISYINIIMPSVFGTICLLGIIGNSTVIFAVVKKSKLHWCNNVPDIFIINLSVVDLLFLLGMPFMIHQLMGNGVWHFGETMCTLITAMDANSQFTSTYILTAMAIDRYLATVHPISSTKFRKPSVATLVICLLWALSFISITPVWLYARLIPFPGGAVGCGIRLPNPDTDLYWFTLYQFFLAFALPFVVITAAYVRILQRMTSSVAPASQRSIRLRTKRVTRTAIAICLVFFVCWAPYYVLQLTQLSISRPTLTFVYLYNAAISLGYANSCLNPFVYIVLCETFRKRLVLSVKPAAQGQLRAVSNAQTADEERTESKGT
Sequence of Melanocortin receptor 4 (P32245 whole entry): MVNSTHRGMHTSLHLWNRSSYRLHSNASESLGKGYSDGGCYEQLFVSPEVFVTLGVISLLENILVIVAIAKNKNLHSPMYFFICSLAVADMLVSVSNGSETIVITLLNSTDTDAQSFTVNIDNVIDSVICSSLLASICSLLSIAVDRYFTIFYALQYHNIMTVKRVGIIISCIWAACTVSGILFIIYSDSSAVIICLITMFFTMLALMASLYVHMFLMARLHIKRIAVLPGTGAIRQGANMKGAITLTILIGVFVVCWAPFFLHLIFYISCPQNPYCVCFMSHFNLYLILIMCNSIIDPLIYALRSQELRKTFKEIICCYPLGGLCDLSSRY
Sequence of Caspase-8 (Q14790 217-374 limits assumed): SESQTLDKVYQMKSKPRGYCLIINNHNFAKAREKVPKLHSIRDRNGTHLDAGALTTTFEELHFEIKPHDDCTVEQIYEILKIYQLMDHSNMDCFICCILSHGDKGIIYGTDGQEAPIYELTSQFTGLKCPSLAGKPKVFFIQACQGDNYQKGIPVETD
Sequence of Caspase-8 (Q14790 385-479 limits assumed): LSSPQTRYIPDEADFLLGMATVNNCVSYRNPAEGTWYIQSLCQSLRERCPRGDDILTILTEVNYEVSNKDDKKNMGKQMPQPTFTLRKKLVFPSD

CCOc1ccc(C(C#N)c2c(Br)cnn(Cc3cccc4ccccc34)c2=O)cc1 (stereo unspecified)
IC50 [1]: 0.4 µM (active) | IC50 [2]: 0.4 µM (active)

Cc1c2ccccc2nc2c(F)c(N(C)C)c(F)c(F)c12
IC50 (CHO-K1): > 66.2 µM (inactive) | IC50 (Orexin receptor type 2 [3]): 32.2 µM (inactive) | IC50 [4]: 1.01 µM (active) | IC50 [5]: 2.19 µM (active) | IC50 (Orexin receptor type 2 [6]): > 50 µM (inactive) | IC50 [7]: 19.7 µM (inactive) | CC50 [8]: > 40 µM (active)

CC(c1ccco1)N(C(=O)c1ccccc1NS(=O)(=O)c1ccc(Cl)c([N+](=O)[O-])c1)c1ccccn1 (stereo unspecified)
IC50 [9]: 20.3 µM (active) | IC50 [10]: 4.01 µM (active) | IC50 [11]: 0.661 µM (inconclusive) | EC50 [12]: > 53 µM (inactive) | IC50 [13]: 18 µM (active)

NC(Cc1ccc(Cl)cc1)c1csc(Nc2ccc(-c3ccccc3)nn2)n1 (stereo unspecified)
EC50 (Melanocortin receptor 4): > 89.2 µM (inactive)

O=C(Nc1cccc(S(=O)(=O)NCc2ccco2)c1)c1cc(-c2ccc(F)cc2)nc2ccccc12
IC50 (CHO-K1): > 66.2 µM (inactive) | CC50 [14]: 2.38 µM (active) | IC50 (Orexin receptor type 2 [3]): 9.9 µM (active) | IC50 [4]: 6.13 µM (active) | IC50 [5]: 17.2 µM (inactive) | IC50 (Orexin receptor type 2 [6]): > 50 µM (inactive) | IC50 [7]: > 49.8 µM (inactive)

C/C(=N\N=C(N)N)c1ccc(Cl)cc1
IC50 [10]: 4.01 µM (active) | IC50 [11]: 7.39 µM (active)

O=c1c(-c2ccccc2F)c(Br)cnn1Cc1cccc2ccccc12
IC50 [1]: 3.58 µM (active) | IC50 [2]: 3.58 µM (active)

CC(C)(C)c1ccc(NC(=O)COC(=O)c2ccc([N+](=O)[O-])s2)cc1
AC50 (Caspase-6): 3.59 µM (active) | AC50 [15]: 2.85 µM (active) | AC50 (Caspase-8): 37.4 µM (active) | AC50 (Caspase-7): 21.7 µM (active) | EC50 [16]: 54.7 µM (inactive)
